Legend:
patients with ALS = assay: BENEFIT-ALS clinical trial: treatment-emergent adverse events, discontinuations, deaths; format: in vivo, human
Method: BENEFIT-ALS was a multi-national, randomized, stratified, double-blind, placebo-controlled, parallel-group study of tirasemtiv in patients with ALS. The study consisted of a screening period, an open-label/lead-in period, and a double-blind treatment period. Following screening, eligible patients received open-label tirasemtiv, 125 mg BID, for 7 days. Patients who tolerated the 7-day lead-in period were randomized in a 1:1 ratio to tirasemtiv or placebo. Over the first 3 weeks of double-blind treatment, patients randomized to tirasemtiv had their TDD up-titrated as follows: 250 mg for 7 days, then 375 mg for 7 days, then 500 mg for 7 days. […] However, in such cases, dose escalation was re-attempted at least one additional time. The highest tolerable tirasemtiv dose for each individual patient was the dose that patient received for the remaining 9 weeks (i.e., the maximum tolerated dose [MTD] phase) of the study. Patients randomized to placebo underwent a corresponding dummy dose titration.
A total of 711 patients were enrolled in the study and began treatment with open-label tirasemtiv 125 mg BID. After the one-week open-label phase, 302 patients were randomized to placebo and 303 to tirasemtiv. Of these randomized patients, 269 in the placebo group and 204 in the tirasemtiv group completed the study, while 33 on placebo and 99 on tirasemtiv prematurely discontinued study drug, primarily due to AEs (12 patients on placebo 78 patients on tirasemtiv) and patient withdrawal of consent (7 placebo, 12 tirasemtiv).
Safety data presented were based on the safety analysis set, defined as all patients who received at least 1 dose of double-blind study drug. Of the 605 randomized patients, 596 (295 placebo, 301 tirasemtiv) received at least 1 dose of double-blind study drug and were included in the safety analysis set. Data for the primary and secondary efficacy endpoints were analyzed with the Modified FAS. This analysis set included all patients who received at least 1 dose of double-blind study drug and had at least 1 efficacy assessment during the double-blind treatment period, and excluded 156 patients who were randomized in blocks containing patients affected by a study drug assignment error in which 58 patients randomized to and treated with double-blind tirasemtiv were dispensed double-blind placebo instead. Based on these criteria, the Modified FAS consisted of 388 patients (210 placebo, 178 tirasemtiv).
An overview of treatment-emergent AEs during the double-blind phase of the study is provided in Table 4, and commonly reported AEs during the double-blind phase are summarized in Table 5. Serious AEs during the double-blind phase of the study were reported for 16 patients (5.4%) in the placebo group and 27 patients (9.0%) in the tirasemtiv group. By the Medical Dictionary for Regulatory […] (MedDRA) system organ class, the most commonly reported SAEs involved respiratory, thoracic and mediastinal disorders (2.0% placebo, 1.3% tirasemtiv). By MedDRA preferred term, AEs that were reported for more than 1 patient included the following: dysphagia (0.3% placebo, 0.7% tirasemtiv), pneumonia (0.3% placebo, 0.7% tirasemtiv), confusional state (0% placebo, 0.7% tirasemtiv), delirium (0% placebo, 0.7% tirasemtiv), and respiratory failure (1.0% placebo, […]).

cardiac muscle troponin = settings: cited from earlier work
[1] = tested on: muscle contraction / grip strength; settings: cited from earlier work
[2] = double-blind phase, N=301, MedDRA preferred term
[3] = double-blind phase, N=301, NCI CTCAE
[4] = double-blind phase, N=301, listed as tirasemtiv
[5] = double-blind phase, reported for more than 1 patient

For `C#Cc1cnc2nc(O)n(C(CC)CC)c2n1` [Tirasemtiv, 6-ethynyl-1-(pentan-3-yl)-1H-imidazo[4,5-b]pyrazin-2(3H)one], which “Patients who terminated treatment during the first 4 weeks of the double-blind phase” value (patients with ALS; 71/97 of early terminations) is on record?
Its value is 73.2%.

What about the “Confusional state leading to early discontinuation” value (patients with ALS; double-blind phase) of the same molecule?
The value was 5.0%.

And the “Dizziness leading to early discontinuation” value (patients with ALS; double-blind phase)?
The value was 9.3%.

And the “Fatigue leading to early discontinuation” value (patients with ALS; double-blind phase)?
Its value is 5.0%.

What about the “Gastrointestinal (GI) AEs, % of patients” value (patients with ALS; double-blind phase) of the same molecule?
Its value is 43.5%.

What about the “Gastrointestinal (GI) AEs, No. of patients” value (patients with ALS; double-blind phase) of the same molecule?
Its value is 131.

What about the “SAEs: respiratory, thoracic and mediastinal disorders (MedDRA system organ class)” value (patients with ALS; double-blind phase) of the same molecule?
The value was 1.3%.

And the “% of patients with AE leading to early termination” value (patients with ALS; double-blind phase, N=301)?
The value was “(25.9%)”.

What about the “% of patients with SAE” value (patients with ALS; double-blind phase, N=301) of the same molecule?
The value was “(9.0%)”.

What about the “Deaths, % of patients” value (patients with ALS; double-blind phase, N=301) of the same molecule?
Its value is “(0.7%)”.

And the “Deaths, No. of patients” value (patients with ALS; double-blind phase, N=301)?
Its value is 2.

What about the “No. of patients with AE leading to early termination” value (patients with ALS; double-blind phase, N=301) of the same molecule?
The value was 78.

What about the “No. of patients with SAE” value (patients with ALS; double-blind phase, N=301) of the same molecule?
The value was 27.

What about the “AE Asthenia” value (patients with ALS; [2]) of the same molecule?
The value was 15.9%.

What about the “AE Confusional state” value (patients with ALS; [2]) of the same molecule?
Its value is 11.0%.

And the “AE Constipation” value (patients with ALS; [2])?
Its value is 6.3%.

And the “AE Contusion” value (patients with ALS; [2])?
Its value is 7.3%.

What about the “AE Decreased appetite” value (patients with ALS; [2]) of the same molecule?
The value was 10.0%.

And the “AE Diarrhea” value (patients with ALS; [2])?
Its value is 7.3%.

And the “AE Dizziness” value (patients with ALS; [2])?
The value was 50.8%.

What about the “AE Fatigue” value (patients with ALS; [2]) of the same molecule?
The value was 33.2%.

What about the “AE Headache” value (patients with ALS; [2]) of the same molecule?
Its value is 17.9%.

And the “AE Insomnia” value (patients with ALS; [2])?
The value was 10.3%.

What about the “AE Muscle spasms” value (patients with ALS; [2]) of the same molecule?
The value was 15.0%.

And the “AE Muscular weakness” value (patients with ALS; [2])?
Its value is 11.3%.

And the “AE Nasopharyngitis” value (patients with ALS; [2])?
Its value is 6.3%.

And the “AE Nausea” value (patients with ALS; [2])?
The value was 21.9%.

What about the “AE Respiratory failure” value (patients with ALS; [2]) of the same molecule?
The value was 6.3%.

What about the “AE Somnolence” value (patients with ALS; [2]) of the same molecule?
The value was 13.0%.

What about the “% of patients with Grade 3 AE” value (patients with ALS; [3]) of the same molecule?
The value was “(20.3%)”.

What about the “% of patients with Grade 4 AE” value (patients with ALS; [3]) of the same molecule?
Its value is “(3.0%)”.

What about the “% of patients with Grade 5 AE” value (patients with ALS; [3]) of the same molecule?
The value was “(0.7%)”.

And the “No. of patients with Grade 3 AE” value (patients with ALS; [3])?
Its value is 61.

And the “No. of patients with Grade 4 AE” value (patients with ALS; [3])?
The value was 9.

And the “No. of patients with Grade 5 AE” value (patients with ALS; [3])?
The value was 2.

What about the “% of patients with SAE” value (patients with ALS; [4]) of the same molecule?
Its value is 9.0%.

And the “Deaths, % of patients” value (patients with ALS; [4])?
Its value is 0.7%.

And the “Serious AE confusional state” value (patients with ALS; [5])?
The value was 0.7%.

And the “Serious AE delirium” value (patients with ALS; [5])?
Its value is 0.7%.

And the “Serious AE dysphagia” value (patients with ALS; [5])?
Its value is 0.7%.

And the “Serious AE pneumonia” value (patients with ALS; [5])?
The value was 0.7%.

And the “Serious AE respiratory failure” value (patients with ALS; [5])?
Its value is 0.5%.

And the “No. of patients with any treatment-emergent AE” value (patients with ALS; double-blind phase, safety set N=301)?
Its value is 291.

And the “Patients who prematurely discontinued study drug” value (patients with ALS; of 303 randomized to tirasemtiv)?
The value was 99.

What about the “Effect on cardiac muscle troponin” value (cardiac muscle troponin) of the same molecule?
The value was “no effect”.

What about the Grip strength ([1]; preclinical models of limited neuromuscular input) of the same molecule?
Its Grip strength is “increased grip strength”.

And the “Force of muscle contraction” value ([1]; submaximal nerve stimulation frequencies)?
Its value is “increased the force of muscle contraction”.

From patent publication US20170042890A1, “METHODS OF REDUCING DECLINE IN VITAL CAPACITY” (Cytokinetics, Inc., priority 2014, published 2017)
